The source made the active and inactive calls. No cut-off for these calls is given here.
Legend:
[1] = Inhibition of rabbit GSKbeta assessed as [32P]-phosphorylation of substrate after 1 hr by scintillation counting; set-up: species or system Oryctolagus cuniculus
[2] = species: Oryctolagus cuniculus; assay: Inhibition of rabbit GSKbeta assessed as [32P]-phosphorylation of substrate up to 50 uM after 1 hr by scintillation counting

Row | Structure (SMILES) | IC50 [1] [µM] | inhibition [2]
1 | CCCCC/C=C/C(O)CCCCCCCCCCCCCC(=O)OC(C)C[C@H](O)[C@H](O)C[C@H](O)CCC(=O)NCCS(=O)(=O)O (mixture of isomers) [CARTERIOSULFONIC ACID C] | 6.8 | 
2 | CCCCC/C=C/C(O)CCCCC/C=C/C(CCCCCCCC(=O)OC(C)C[C@H](O)[C@H](O)C[C@H](O)CCC(=O)NCCS(=O)(=O)O)OC(C)=O (some centres undefined) [CARTERIOSULFONIC ACID B] | 6.8 | 
3 | CC(O)C[C@H](O)[C@H](O)C[C@H](O)CCC(=O)NCCS(=O)(=O)O (some centres undefined) |  | inactive
4 | CCCCC/C=C/C(O)CCCCC/C=C/C(O)CCCCCCCC(=O)OC(C)C[C@H](O)[C@H](O)C[C@H](O)CCC(=O)NCCS(=O)(=O)O (mixture of isomers) [CARTERIOSULFONIC ACID A] | 12.5 | 

Source: ChEMBL document CHEMBL1154308, “Carteriosulfonic acids A-C, GSK-3beta inhibitors from a Carteriospongia sp” (J Nat Prod, 2009)
